System: Javanese medaka (Oryzias javanicus) livers
Assay: real-time quantitative PCR of liver gene expression after exposure to BPA
Type: in vivo
Settings: 76 μg/L, 48 hr, β-actin control gene
Procedure: To 3 L beaker with 2 L filtered seawater therein, 10 male Javanese medaka bred in culture water tank were transported each time, and acclimated for 24 hr. […] Additionally, five Javanese medaka of Example <1-1> were exposed to BPA (76 μg/L) for 48 hr. […] The Javanese medaka was transported to ice water, one at a time, which momentarily stunned it, followed by beheading and evisceration and liver removal.
Primers for real-time quantitative PCR (RT-PCR) for the above genes were designed and synthesized, and sequences of the primers of the genes for real time quantitative PCT are listed in Table 6 below.
With RNA template extracted with the method of Example <2-1>, cDNA was synthesized using AB High Capacity RAN-to-cDNA Kit (Applied Biosystems, USA). RNA in the amount of 1 μg was seeded, added with distilled water and titrated to 9 μl. 2×RT buffer (10 μl), and 20× enzyme Mix 1 μl were mixed well, centrifuged and precipitated, and allowed to react at 37° C. for 60 min. The reactant was heated at 95° C. for 5 min, after which reaction was completed. The synthesized cDNA was stored at −20° C.
To the 0.5 μg synthesized cDNA (corresponding to approximately 10 ng/μl), 0.8 primer pairs of corresponding genes (10 pmol/μl), and 2 SYBR1 mixture (10 μl) were added. The final amount was titrated to 20 μl using distilled water. At temperature condition of 95° C. 10 min, 95° C. 30 sec, 60° C. 30 sec, 72° C. 30 sec, 40 cycles of PCR were conducted.
CT values of the respective samples after exposure to BPA between control genes (β-actin) and genes of interest were compared with each other, and the relative expression differences of the genes of interest were quantified into relative values according to Relative Standard Curve (Table 7).

## CC(C)(c1ccc(O)cc1)c1ccc(O)cc1 [BPA, Bisphenol A]
  Fold difference, Apolipoprotein E1 (AP): +2.30 fold
  Fold difference, Arylamine N-acetyl transferase (ANAT): −1.69 fold
  Fold difference, Basigin (Bsgn): +4.25 fold
  Fold difference, C1q-like adipose specific protein (C-ASP): −2.17 fold
  Fold difference, Calcium binding protein P22 (CBP-P22): +1.19 fold
  Fold difference, Catalase (Cat): −1.49 fold
  Fold difference, Ceruloplasmin (Cer): +2.09 fold
  Fold difference, Chitinase (Chi): −5.56 fold
  Fold difference, Choline kinase (Chka): +4.18 fold
  Fold difference, Choriogenin L (ChL): +50.00 fold
  Fold difference, Complement component C8 beta (C8): −1.37 fold
  Fold difference, Complement factor B/C2-B (CF-B/C2): −2.27 fold
  Fold difference, Delta 6-desaturase (FD6D): +1.43 fold
  Fold difference, Delta-6 fatty acyl desaturase (FADSD6): −1.39 fold
  Fold difference, Glutaminase (Gls): −1.35 fold
  Fold difference, Glutathione S-transferase (Gst): −1.85 fold
  Fold difference, Hepcidin (Hep): −1.14 fold
  Fold difference, Leukocyte elastase inhibitor (LE): +1.12 fold
  Fold difference, Lipoprotein lipase (LPL): +1.11 fold
  Fold difference, N-acetyltransferase (NAT13): −2.50 fold
  Fold difference, Plasminogen (Plg): +1.25 fold
  Fold difference, Retinol binding protein 4 (RBP4): +1.12 fold
  Fold difference, Ring finger protein 141 (RFP): +1.23 fold
  Fold difference, TBT-binding protein (TBT-bp): −1.66 fold
  Fold difference, Transferrin (TF): −1.30 fold
  Fold difference, Uridine phosphorylase 2 (Upp2): −1.72 fold
  Fold difference, Vitellogenin 1 (Vit1): −100.00 fold
  Fold difference, Warm temperature acclimation (C243) (Wap65): +1.07 fold

— US20140315738A1, “MARINE MEDAKA GENES RESPONDING TO THE EXPOSURE OF ENDOCRINE-DISRUPTING CHEMICALS, AND METHOD FOR DIAGNOSING AN AQUATIC ECO-SYSTEM CONTAMINATION USING SAME” (priority 2011, published 2014)
